Here are results for 18 compounds from patent publication US20200270232A1, “INHIBITORS OF INTEGRATED STRESS RESPONSE PATHWAY” (Praxis Biotech LLC, priority 2019, published 2020).

As a reminder, the IC50 is the midpoint of a concentration-inhibition curve.

In one assay the test system is ATF4. In words: ATF4 expression inhibition assay (ATF4 luciferase reporter). It counts as cell-based. The note with it: Homo sapiens, HEK-293T; HEK293T cells carrying the ATF4 luciferase reporter, 100 nM thapsigargin (Tg), 3 hours; read-out: ATF4 inhbition IC50. The method, then:
The ATF4 reporter was prepared by fusing the human full length 5′UTR of ATF4 (NCBI Accession No. BC022088.2) upstream of the firefly luciferase coding sequence lacking the initiator methionine. The fused sequence was cloned into pLenti-EF1a-C-Myc-DDK-IRES-Puro cloning vector (Origen # PS 100085) using standard methods. Virus production was carried out by using Lenti-X™ Packaging Single Shots Protocol (Clonetech #631276). Viral particles were used to transduce HEK293T cells (ATCC # CRL-3216, ATCC Manassas, Va.), which were subsequently selected with puromycin to generate stable cell line. Cells were maintained at 37° C. and 5% CO2 in DMEM-F12 (Hyclone # SH30023.02) supplemented with 10% heat-inactivated fetal bovine serum (Gibco #16000-044), 2 mM L-glutamine (Gibco #25030-081), 100 U/ml penicillin, and 100 μg/ml streptomycin (Gibco #15140-122).
HEK293T cells carrying the ATF4 luciferase reporter were plated on 96-well plates (Nunc) at 10,000 cells per well. Cells were treated two days after seeding with 100 nM thapsigargin (Tg) (Sigma-Aldrich # T9033) in the presence of different concentrations of selected compounds ranging from 1 nM to 10 μM. Cells without treatment or cells treated with Tg alone were used as controls. Assay plates containing cells were incubated for 3 hours at 37° C.
Luciferase reactions were performed using Luciferase Assay System (Promega # E1501) as specified by the manufacturer. Luminescence was read with an integration time of 1 s and a gain of 110 using a Cytation-5 multi-mode microplate reader (BioTek). Relative luminescence units were normalized to Tg treatment (0% inhibition) and untreated cells (100% inhibition) and the percentage of ATF4 inhibition was calculated.
Accordingly, inhibition of ATF4 expression as a result of the test compound indicates suppression of the ISR pathway.

Assay [1] concerns Chinese hamster ovary (CHO) cells. In words: Protein translation assay (puromycin labelling, western blot). It counts as cell-based. The note with it: 2 hours, media alone = 100%; for activity at 1 µM: Cricetulus griseus, unstressed CHO cells (without Tg), 1 μM test compound, read-out: % Protein synthesis relative to untreated (1 μM test compound); for % Recovery of protein synthesis (1 μM test compound): stressed CHO cells, 300 nM Tg, Tg alone = 0%. The method, then:
Chinese hamster ovary (CHO) cells were maintained at 37° C. and 5% C02 in Dulbecco's Modified Eagle's Media (DMEM) supplemented with 10% fetal bovine serum, 2 mM L-glutamine, 100 U/ml penicillin, and 100 μg/ml streptomycin. After reaching 80% of confluence, cells were detached and seeded on 6 well plates in complete media, allowed to recover overnight and treated for 2 hours with 1 μM of the test compound (to assess protein synthesis levels in unstressed condition), or for 2 hours with 300 nM Tg in the presence of 1 μM of the test compound (to assess the recovery of protein synthesis in a stressed condition). Cells with Tg alone were used as controls.
After the 2 hours treatments, media were replaced by adding 10 μg/ml puromycin (Sigma Aldrich # P8833) in complete media for 30 min. Media were removed and cells were lysed with SDS-PAGE lysis buffer. Lysates were transferred to 1.5 ml tubes and sonicated for 3 min and total protein amount were quantified using BCA Protein Assay Kit (Pierce). Equal amount of protein (30 μg) was loaded on SDS-PAGE gels. Proteins were transferred onto 0.2 μm PVDF membranes (BioRad) and probed with primary antibodies diluted in Tris-buffered saline supplemented with 0.1% Tween 20 (Merck # S6996184 505) and 3% bovine serum albumin (Rockland # BSA-50).
Puromycin (12D10) (Merck # MABE343) and β-actin (Sigma Aldrich # A5441) antibodies were used as primary antibody. A HRP-conjugated secondary antibody (Rockland) was employed to detect immune-reactive bands using enhanced chemiluminescence (ECL Western Blotting Substrate, Pierce). Quantification of protein bands was done by densitometry using ImageJ software.
Percent increase of protein synthesis in unstressed cells (without Tg treatment) in the presence of media alone or certain test compounds is shown in Table 3. The percentage levels were normalized to the media alone condition, which correspond to 100% protein synthesis.
Percent recovery of protein synthesis in stressed cells (with Tg treatment) due to the test compounds at 1 μM is also shown in Table 3. The levels were normalized to the media alone and Tg alone conditions, which correspond to 100% and 0% respectively.
On the technique in general: Immunoblotting shows a protein as a band on a membrane.

A value given as a limit tells only on which side of the number the result lay.

Regarding `O=C(NCC1CCC(NCC(O)COc2ccc(Cl)c(F)c2)C1)c1cc2cc(Cl)ccc2o1` (stereo not shown) [Compound 33, 5-chloro-N-((3-((3-(4-chloro-3-fluorophenoxy)-2-hydroxypropyl)amino)cyclopentyl)methyl)benzofuran-2-carboxamide], in the assay on ATF4, the IC50 is more than 1000 nM. In addition, in assay [1], the activity at 1 µM came out at 147% and the “% Recovery of protein synthesis (1 μM test compound)” value (shortened to “% Recovery of protein synthesis”) came to 101.1%.

As for `O=C(NCC1CCC(NCC(O)COc2ccc(Cl)c(F)c2)C1)c1ccc2cc(Cl)ccc2n1` (stereo not shown) [Compound 34, 6-chloro-N-((3-((3-(4-chloro-3-fluorophenoxy)-2-hydroxypropyl)amino)cyclopentyl)methyl)quinoline-2-carboxamide], in the assay with ATF4, the IC50 is more than 1000 nM. Besides, in assay [1], the activity at 1 µM worked out at 166% and the “% Recovery of protein synthesis” value is on record as 122.6%.

For the compound `O=C(NC1CCN(CC(O)COc2ccc(Cl)c(F)c2)C1)c1ccc2cc(Cl)ccc2n1` (stereo not shown) [Compound 53, 6-chloro-N-(1-(3-(4-chloro-3-fluorophenoxy)-2-hydroxypropyl)pyrrolidin-3-yl)quinoline-2-carboxamide], the 50% inhibitory concentration (IC50) in the assay with ATF4 is more than 1000 nM. In assay [1], the activity at 1 µM was 102% and the “% Recovery of protein synthesis” value is 37.93%.

Turning to `O=C(NC1CCN(CCCOc2ccc(Cl)c(F)c2)C1)c1ccc2cc(Cl)ccc2n1` (stereo not shown) [Compound 56, 6-chloro-N-(1-(3-(4-chloro-3-fluorophenoxy)propyl)pyrrolidin-3-yl)quinoline-2-carboxamide], the IC50 in the assay with ATF4 was more than 1000 nM. Moreover, in assay [1], the activity at 1 µM came to 100% and the “% Recovery of protein synthesis” value came to 32.73%.

For `O=C(NCC1CCN(C[C@@H](O)COc2ccc(Cl)c(F)c2)C1)c1ccc2cc(Cl)ccc2n1` (stereo partly drawn) [Compound 80, 6-chloro-N-((1-((R)-3-(4-chloro-3-fluorophenoxy)-2-hydroxypropyl)pyrrolidin-3-yl)methyl)quinoline-2-carboxamide], the IC50 in the assay on ATF4 is more than 100 nM. Moreover, in assay [1], the activity at 1 µM was 153% and the “% Recovery of protein synthesis” value came to 23.9%.

Regarding `O=C(NCC1CCN(C[C@H](O)COc2ccc(Cl)c(F)c2)C1)c1ccc2cc(Cl)ccc2n1` (stereo partly drawn) [Compound 81, 6-chloro-N-((1-((S)-3-(4-chloro-3-fluorophenoxy)-2-hydroxypropyl)pyrrolidin-3-yl)methyl)quinoline-2-carboxamide], the IC50 in the assay with ATF4 turned out to be 1000 nM. Besides, in assay [1], the activity at 1 µM was determined as 134% and the “% Recovery of protein synthesis” value is reported as 38.7%.

`O=C(NC1CCC(NC[C@@H](O)COc2ccc(Cl)c(F)c2)C1)c1cc2cc(Cl)ccc2o1` (stereo partly drawn) [Compound 82, 5-chloro-N-(3-(((R)-3-(4-chloro-3-fluorophenoxy)-2-hydroxypropyl)amino)cyclopentyl)benzofuran-2-carboxamide]: the IC50 in the assay on ATF4 is more than 1000 nM. Besides, in assay [1], the activity at 1 µM came out at 160% and the “% Recovery of protein synthesis” value was 176.4%.

As for `O=C(NC1CCC(NC[C@H](O)COc2ccc(Cl)c(F)c2)C1)c1cc2cc(Cl)ccc2o1` (stereo partly drawn) [Compound 83, 5-chloro-N-(3-(((S)-3-(4-chloro-3-fluorophenoxy)-2-hydroxypropyl)amino)cyclopentyl)benzofuran-2-carboxamide], in the assay with ATF4, the IC50 is more than 1000 nM. In assay [1], the activity at 1 µM came out at 129% and the “% Recovery of protein synthesis” value was found to be 175.2%.

Turning to `O=C(COc1ccc(Cl)c(F)c1)NCC1CCC(NC(=O)COc2ccc(Cl)c(F)c2)C1` (stereo not shown) [Compound 84, 2-(4-chloro-3-fluorophenoxy)-N-((3-(2-(4-chloro-3-fluorophenoxy)acetamido)cyclopentyl)methyl)acetamide], the IC50 with ATF4 was more than 100 nM. Also, the activity at 1 µM in assay [1] stood at 80.3%.

In the case of `O=C(COc1ccc(Cl)c(F)c1)NCC1CCC(NC(=O)c2ccc3cc(Cl)ccc3n2)C1` (stereo not shown) [Compound 85, 6-chloro-N-(3-((2-(4-chloro-3-fluorophenoxy)acetamido)methyl)cyclopentyl)quinoline-2-carboxamide], the IC50 in the assay on ATF4 was less than 1000 nM. In addition, the activity at 1 µM in assay [1] is 88%.

On to `O=C(COc1ccc(Cl)c(F)c1)NCC1CCC(NC(=O)c2cc3cc(Cl)ccc3o2)C1` (stereo not shown) [Compound 86, 5-chloro-N-(3-((2-(4-chloro-3-fluorophenoxy)acetamido)methyl)cyclopentyl)benzofuran-2-carboxamide], for which the IC50 in the assay on ATF4 was less than 100 nM. The activity at 1 µM in assay [1] is 94.2%.

For `O=C(COc1ccc(Cl)c(F)c1)NC1CCC(CNC(=O)c2ccc3cc(Cl)ccc3n2)C1` (stereo not shown) [Compound 87, 6-chloro-N-((3-(2-(4-chloro-3-fluorophenoxy)acetamido)cyclopentyl)methyl)quinoline-2-carboxamide], the concentration for half-maximal inhibition (IC50) in the assay with ATF4 is less than 1000 nM. In addition, the activity at 1 µM in assay [1] came to 83.9%.

On to `O=C(COc1ccc(Cl)c(F)c1)NC1CCC(CNC(=O)c2cc3cc(Cl)ccc3o2)C1` (stereo not shown) [Compound 88, 5-chloro-N-((3-(2-(4-chloro-3-fluorophenoxy)acetamido)cyclopentyl)methyl)benzofuran-2-carboxamide], for which the IC50 in the assay with ATF4 was less than 1000 nM. In addition, the activity at 1 µM in assay [1] came to 76.4%.

Take `O=C(COc1ccc(Cl)c(F)c1)NCC1CCC(NCC(O)COc2ccc(Cl)c(F)c2)C1` (stereo not shown) [Compound 89, 2-(4-chloro-3-fluorophenoxy)-N-((3-((3-(4-chloro-3-fluorophenoxy)-2-hydroxypropyl)amino)cyclopentyl)methyl)acetamide]: the IC50 with ATF4 is more than 1000 nM. In addition, in assay [1], the activity at 1 µM amounted to 119% and the “% Recovery of protein synthesis” value was determined as 42.5%.

Consider `O=C(NC1CC[C@H](NC[C@@H](O)COc2ccc(Cl)c(F)c2)C1)c1cc2cc(Cl)ccc2o1` (stereo partly drawn) [Compound 90, 5-chloro-N-((3S)-3-(((R)-3-(4-chloro-3-fluorophenoxy)-2-hydroxypropyl)amino)cyclopentyl)benzofuran-2-carboxamide], for which the IC50 in the assay with ATF4 was 57.8 nM. Also, in assay [1], the activity at 1 µM was determined as 210% and the “% Recovery of protein synthesis” value was found to be 269.7%.

Regarding `O=C(NC1CC[C@H](NC[C@H](O)COc2ccc(Cl)c(F)c2)C1)c1cc2cc(Cl)ccc2o1` (stereo partly drawn) [Compound 91, 5-chloro-N-((3S)-3-(((S)-3-(4-chloro-3-fluorophenoxy)-2-hydroxypropyl)amino)cyclopentyl)benzofuran-2-carboxamide], the IC50 with ATF4 turned out to be 1240 nM. Moreover, in assay [1], the activity at 1 µM was 190% and the “% Recovery of protein synthesis” value is listed as 209.4%.

Turning to `O=C(COc1ccc(Cl)c(F)c1)NCC1CCN(NC(=O)COc2ccc(Cl)c(F)c2)C1` (stereo not shown) [Compound 92, 2-(4-chloro-3-fluorophenoxy)-N-(3-((2-(4-chloro-3-fluorophenoxy)acetamido)methyl)pyrrolidin-1-yl)acetamide], the IC50 in the assay with ATF4 worked out at 14.1 nM. In assay [1], the activity at 1 µM was 93.6% and the “% Recovery of protein synthesis” value is reported as 45.8%.

Turning to `O=C(COc1ccc(Cl)c(F)c1)NCC1CCN(NC(=O)c2ccc3cc(Cl)ccc3n2)C1` (stereo not shown) [Compound 93, 6-chloro-N-(3-((2-(4-chloro-3-fluorophenoxy)acetamido)methyl)pyrrolidin-1-yl)quinoline-2-carboxamide], in the assay on ATF4, the IC50 is 2.8 nM. Further, in assay [1], the activity at 1 µM was 102% and the “% Recovery of protein synthesis” value is 51.4%.
